Data as given in patent US11311598B2, “Peptides and analogs for use in the treatment of oral mucositis” (Soligenix, Inc., priority 2013, dated 2022).
Where no end group is shown, it is not given here.

How the values were obtained:
cynomolgus monkeys = test: cynomolgus monkey IV toxicity studies (pilot, GLP 14-day); format: in vivo; settings: for occurrence of acute toxicity (respiratory depression): cynomolgus monkey
Description: Two pilot and 2 definitive repeat-dose toxicity studies were conducted with RIVPA (SEQ ID NO. 5) in mice and cynomolgus monkeys using the intravenous (IV; slow bolus) route of administration. All studies were conducted by LAB Research Inc., Canada.
These resolved within a few minutes without detectable residual effects.
RIVPA (SEQ ID NO. 5) at 20, 80, 160 mg/kg/day was given IV to cynomolgus monkeys for 14 days. […] In all cases, these clinical signs resolved within a few minutes. […] A dose level of 80 mg/kg/day was considered to be the No-Observed-Adverse-Effect-Level (NOAEL) for this study.
Overall, the NOAEL is considered to be 80 mg/kg/day for cynomolgus monkeys since transient clinical signs were limited to a single study and occurred in only 2 instances of the 98 administrations of the drug at this dose level.
The observed respiratory depression occurred at different dose levels in different species, and was not predicted by allometric scaling. In particular, the mouse appeared to be the most sensitive species with acute toxicity occurring rarely at 60 mg/kg (HED: ^˜5 mg/kg) and commonly at 90 mg/kg (HED: ^˜7 mg/kg). In contrast in NHP (cynomologus monkey), acute toxicity occurred occasionally at 160 mg/kg (HED: ^˜50 mg/kg) and consistently at 240 mg/kg (HED: ^˜78 mg/kg).

[1] = mice
male C57BL/6 mice = test: DSS-induced colitis model; format: in vivo, mouse
Description: The ability of IV RIVPA (SEQ ID NO. 5), administered pre-emptively or therapeutically, to directly protect GI mucosal surfaces was confirmed in a DSS-induced colitis model. In this model, DSS was administered as a 3% DSS solution in the drinking water of male C57BL/6 mice from Days 0 to 5 of the study. Colitis was monitored by video endoscopy on Days 7, 14 and 21. RIVPA (SEQ ID NO. 5) (25 mg/kg IV) was administered every third day from Days 0 to 18 (Q3d d0-18), from Days 3 to 18 (Q3d d3-18) or from Days 6 to 18 (Q3d d6-18). […] However, reduction in Day 7 scores was only observed in groups which had received at least 2 doses of RIVPA (SEQ ID NO. 5) by that time (i.e., Q3d d0-18 and Q3d d3-18 but not Q3d d6-18). […] Statistical analysis was undertaken using t-tests and an asterisk indicates statistically significant differences from control (p<0.05).

CYP450 enzymes = test: processing by or inhibition of CYP450 enzymes; format: in vitro ADME
mouse normal blood cells = test: proliferation of mouse normal blood cells in vitro; format: cell-based
[2] = system: S. aureus (Catalog No. 25923, ATCC); test: S. aureus acute peritoneal infection model, local IP treatment; format: in vivo, mouse; settings: female CD-1 mice, 9.5 mg/kg IP 4 h after infection; 24 h after infection
Description: Intraperitoneal (IP) injection of S. aureus (Catalog No. 25923, ATCC, 6×10^7 cfu) with 5% mucin was administered IP to female CD-1 mice (N=8/group) and RIVPA (SEQ ID NO. 5) (9.5 mg/kg) was injected IP 4 h later. Mice were sacrificed 24 h after infection and peritoneal lavage fluid was assessed for bacterial counts. The results of this study are shown in FIG. 11 (each data point represents the result from an individual mouse—dead mice were given the highest bacterial count of any mouse obtained in the study and are represented as open symbols in the graph).

metabolism and excretion = settings: in vivo
[3] = system: central nervous system (CNS); test: effects on the central nervous system in any study; format: in vivo; settings: any study at any dose level
Description: No effects of RIVPA (SEQ ID NO. 5) have been observed on the central nervous system (CNS) in any study at any dose level and little or no radiolabelled RIVPA (SEQ ID NO. 5) was found in the mouse CNS at dose levels of either 20 or 90 mg/kg.

whole blood = test: ex vivo LPS stimulation of whole blood from Phase 1 subjects; format: cell-based, human; settings: dose range 0.15-2 mg/kg; 4 hours in vitro LPS stimulation of whole blood
Description: In ex vivo investigations using blood samples obtained during the Phase 1 healthy human volunteer study, a number of cytokine and chemokine analytes were quantified after 4 hours of in vitro stimulation of whole blood with LPS. The inter-individual variability in analyte levels was larger than any variation in time or response to RIVPA (SEQ ID NO. 5) or placebo administration and the data were therefore self-normalized using the individual pre-dose analyte level to standardize all responses for each individual subject (the Activity Ratio). RIVPA (SEQ ID NO. 5) effects on the analyte Activity Ratios (ARs) were neither constant throughout time, nor linearly dose responsive.

[4] = system: primary human leukemia cells; test: proliferation of primary human leukemia cells in vitro; format: cell-based
MRSA (USA300) = format: in vivo, mouse
Description: Multiple studies with IV administered RIVPA (SEQ ID NO. 5) were conducted in a MRSA bacteremia model. […] In the first study, MRSA (USA300, 7.3 log 10 cfu) was administered via IV injection into the tail vein of female Balb/c mice at time 0. Four hours prior to infection, a single dose of saline or RIVPA (SEQ ID NO. 5) at the indicated dose levels was injected IV into the tail vein. Sub-optimal antibiotic treatment (linezolid, 6.25 mg/kg) was administered once orally immediately after infection. Survival was monitored for 21 days after the infection. In the second study, RIVPA (SEQ ID NO. 5) (IV) or saline (IV) was administered once 4 h prior to infection with MRSA (strain USA300, 7.0 log10 cfu) via the tail vein into female nu/nu mice.

[5] = system: Gram-positive and Gram-negative infections; settings: mouse, in vivo

Substance: RIVPA-NH2 [RIVPA (SEQ ID NO. 5), RIVPA]
- HED of acutely toxic dose (cynomolgus monkeys; NHP 160 mg/kg): ~50 mg/kg
- HED of acutely toxic dose (cynomolgus monkeys; NHP 240 mg/kg): ~78 mg/kg
- immune-related organ weights, histopathology, hematology and clinical chemistry (cynomolgus monkeys; NHP 14-day toxicity study): no changes were observed
- clinical signs (cynomolgus monkeys; NHP pilot studies, 90 (1 animal), 180 (both animals) and 220 (1 animal) mg/kg, during and shortly after dosing): mild clinical signs
- T-cell, B-cell or NK-cell counts (cynomolgus monkeys; NHP, after 14 days of intravenous dosing): no effect
- occurrence of acute toxicity (respiratory depression) (cynomolgus monkeys; 160 mg/kg): occasionally
- occurrence of acute toxicity (respiratory depression) (cynomolgus monkeys; 240 mg/kg): consistently
- clinical signs (cynomolgus monkeys; cynomolgus monkeys, 160 mg/kg/day IV for 14 days): Transient decreased activity and partially closed eyes
- toxicity (cynomolgus monkeys; cynomolgus monkeys, 20 and 80 mg/kg/day IV for 14 days): did not result in any evidence of toxicity
- PK clearance from the circulation [1]: within minutes
- endoscopic colitis severity score (male C57BL/6 mice; Day 7, Q3d d0-18): reduction
- endoscopic colitis severity score (male C57BL/6 mice; Day 7, Q3d d3-18): reduction
- endoscopic colitis severity score (male C57BL/6 mice; Day 14, all regimens, 25 mg/kg IV every third day): statistically significant reduction
- endoscopic colitis response (male C57BL/6 mice; Day 21, all 3 treatment groups): responding in a similar manner
- edema and necrosis, histopathology of the colon (male C57BL/6 mice; Day 21, some RIVPA treated groups): statistically significantly decreased
- severity of DSS-induced colitis (male C57BL/6 mice; endoscopy days 7, 14, 21 and histopathology day 21, FIG. 3): reduces
- inhibition of CYP450 enzymes (CYP450 enzymes): lack
- processing by CYP450 enzymes (CYP450 enzymes): lack
- proliferation of normal blood cells (mouse normal blood cells): did not promote the proliferation
- reduction of bacterial load in peritoneal lavage fluid [2]: over 7 logs
- primary metabolism (metabolism and excretion): proteases throughout body tissues
- role of urine, feces and bile excretion in clearance (metabolism and excretion): very minor role
- effects on the central nervous system (CNS) [3]: No effects
- anti-inflammatory status (TNF RII, IL-1ra vs TNFα, IL-1β Activity Ratios) (whole blood): evidence of an increase
- proliferation of primary leukemia cells [4]: did not promote the proliferation
- duration for which the survival benefit is sustained (MRSA (USA300); FIG. 9): at least 21 days
- time after initiation of infection at which administration still confers a survival benefit (MRSA (USA300); MRSA bacteremia model (data not shown)): up to 24 h
- time prior to initiation of infection at which a single dose still confers a survival benefit (MRSA (USA300); depending on dose level (data not shown)): up to 5 days
- survival over the saline control (MRSA (USA300); female Balb/c mice, single dose 50 mg/kg IV 4 h prior to infection, linezolid 6.25 mg/kg oral, 21 days): statistically significant enhanced survival
- duration of pharmacodynamic effect [5]: up to 5 days
- dose levels with consistent efficacy ([5]; iv): ≥ 25 mg/kg
